We go through 4 compounds from ChEMBL document CHEMBL4152261, “Positional scanning library applied to the human eosinophil cationic protein/RNase3 N-terminus reveals novel and potent anti-biofilm peptides” (Eur J Med Chem, 2018).

In one data set the test system is MRC5. As to the kind of experiment: Cytotoxicity against human MRC5 cells after 4 hrs by MTT assay. The data set is classed as cell-based. The conditions noted are these: MRC5, 4 h.
Data set [1] has as its system Pseudomonas aeruginosa. Briefly: Bactericidal activity against Pseudomonas aeruginosa PAO1 planktonic cells after 4 hrs by BacTiter-Glo assay. The data set is classed as functional. The conditions noted are these: PAO1, 4 h, read-out: ED50 (the source's name).
The subject of data set [2] is Lipopolysaccharide (LPS). As to the kind of experiment: Displacement of BODIPY TR cadaverine from Pseudomonas aeruginosa LPS by fluorescence assay.
The nature of data set [3]: Hemolytic activity in sheep RBC after 4 hrs. The data set is classed as ADME, cell-based, Ovis aries, Erythrocyte. The conditions noted are these: sheep red blood cells (erythrocytes).
Data set [4] can be described thus: Selectivity index, ratio of IC50 for human MRC5 cells to ED50 for induction of biofilm eradication of Pseudomonas aeruginosa PAO1. The data set is classed as toxicity.
For data set [5], the system named is Pseudomonas aeruginosa. Briefly: Induction of Pseudomonas aeruginosa PAO1 agglutination after 1 hr by binocular stereo microscopic method. The data set is classed as functional.
The subject of the next data set is HepG2. Briefly: Cytotoxicity against human HepG2 cells after 4 hrs by MTT assay. The data set is classed as cell-based. The conditions noted are these: HepG2, 4 h.
Data set [6] has as its system Pseudomonas aeruginosa. Briefly: Induction of biofilm eradication of Pseudomonas aeruginosa PAO1 after 4 hrs by BacTiter-Glo assay. The data set is classed as functional. The conditions noted are these: PAO1, 4 h, read-out: ED50 (the source's name).
Data set [7] is described as follows: Selectivity index, ratio of HC50 for sheep RBC to ED50 for induction of biofilm eradication of Pseudomonas aeruginosa PAO1. The class given is toxicity. The conditions noted are these: sheep red blood cells (erythrocytes).
The nature of data set [8]: Hemolytic activity in sheep RBC at 10 uM after 4 hrs relative to control. The conditions noted are these: sheep red blood cells (erythrocytes), read-out: Activity. The class given is ADME, cell-based, Ovis aries, Erythrocyte.
Data set [9] concerns Pseudomonas aeruginosa. As to the kind of experiment: Bactericidal activity against Pseudomonas aeruginosa PAO1 planktonic cells at 1 uM after 4 hrs by BacTiter-Glo assay relative to control. The class given is functional.
Data set [10] concerns Lipopolysaccharide (LPS). Briefly: Displacement of BODIPY TR cadaverine from Pseudomonas aeruginosa LPS at 1 uM by fluorescence assay relative to control.

As to H-RPFIRAQWFAIQHISPRTIAMRAINNYRWR-OH, the 50% inhibitory concentration (IC50) in the data set on MRC5 is above 150 µM; in the data set on HepG2, 95.8 µM. For the same compound, the results for the EC50 in the data set with Pseudomonas aeruginosa [1] and in the data set on Pseudomonas aeruginosa [6] were 0.55 µM and 2.37 µM, respectively. The same compound registered an ED50 in the data set with Lipopolysaccharide (LPS) [2] of 3.42 µM. Further, the concentration for 50% haemolysis (HC50) at 4 h in data set [3] is above 150 µM. In addition, the selectivity ratio in data set [4] and in data set [7] was 16 to 60 each time. This compound also had an MAC in the data set with Pseudomonas aeruginosa [5] of 0.25 µM.
As for `CC[C@H](C)[C@H](NC(=O)[C@H](C)NC(=O)[C@H](CCCNC(=N)N)NC(=O)[C@H](CCSC)NC(=O)[C@H](C)NC(=O)[C@@H](NC(=O)[C@@H](NC(=O)[C@H](CCCNC(=N)N)NC(=O)[C@@H]1CCCN1C(=O)[C@H](CO)NC(=O)[C@@H](NC(=O)[C@H](Cc1cnc[nH]1)NC(=O)[C@@H](NC(=O)[C@@H](NC(=O)[C@H](C)NC(=O)[C@H](Cc1ccccc1)NC(=O)[C@H](Cc1c[nH]c2ccccc12)NC(=O)[C@H](CCC(N)=O)NC(=O)[C@H](C)NC(=O)[C@H](CCCNC(=N)N)NC(=O)[C@@H](NC(=O)[C@H](Cc1ccccc1)NC(=O)[C@@H]1CCCN1C(=O)[C@@H](N)CCCNC(=N)N)[C@H](C)O)[C@@H](C)CC)[C@@H](C)CC)[C@@H](C)CC)[C@@H](C)O)[C@@H](C)CC)C(=O)N[C@@H](CC(N)=O)C(=O)N[C@@H](CC(N)=O)C(=O)N[C@@H](Cc1ccc(O)cc1)C(=O)N[C@@H](CCCNC(=N)N)C(=O)N[C@@H](Cc1c[nH]c2ccccc12)C(=O)N[C@@H](CCCNC(=N)N)C(=O)O`, the IC50 in the data set on MRC5 is above 100 µM; in the data set on HepG2, 59.6 µM. Besides, the EC50 in the data set with Pseudomonas aeruginosa [1] turned out to be 0.44 µM; with Pseudomonas aeruginosa [6], 3.19 µM. Besides, the ED50 in the data set with Lipopolysaccharide (LPS) [2] stood at 1.66 µM. In data set [3], this compound showed a concentration for 50% haemolysis (HC50) at 4 h above 100 µM. The selectivity ratio in data set [4] and in data set [7] was 16 to 60 throughout. For the same compound, the MAC in the data set with Pseudomonas aeruginosa [5] was 0.25 µM.
For the compound `CC[C@H](C)[C@H](NC(=O)[C@H](C)NC(=O)[C@H](CCCNC(=N)N)NC(=O)[C@H](CCSC)NC(=O)[C@H](C)NC(=O)[C@@H](NC(=O)[C@@H](NC(=O)[C@H](CCCNC(=N)N)NC(=O)[C@@H]1CCCN1C(=O)[C@H](CO)NC(=O)[C@@H](NC(=O)[C@H](Cc1cnc[nH]1)NC(=O)[C@H](CCC(N)=O)NC(=O)[C@@H](NC(=O)[C@H](C)NC(=O)[C@H](Cc1ccccc1)NC(=O)[C@H](Cc1c[nH]c2ccccc12)NC(=O)[C@H](CCC(N)=O)NC(=O)[C@H](C)NC(=O)[C@H](CCCNC(=N)N)NC(=O)[C@@H](NC(=O)[C@H](Cc1ccccc1)NC(=O)[C@@H]1CCCN1C(=O)[C@@H](N)CCCNC(=N)N)[C@@H](C)O)[C@@H](C)CC)[C@@H](C)CC)[C@H](C)O)[C@@H](C)CC)C(=O)N[C@@H](CC(N)=O)C(=O)N[C@@H](CC(N)=O)C(=O)N[C@@H](Cc1ccc(O)cc1)C(=O)N[C@@H](CCCNC(=N)N)C(=O)N[C@@H](Cc1c[nH]c2ccccc12)C(=O)N[C@@H](CCCNC(=N)N)C(=O)O`, the IC50 in the data set with MRC5 was above 150 µM; in the data set with HepG2 it was 74.4 µM. Further, the hemolysis at 4 h, 10 µM in [8] was found to be 10%. Besides, the EC50 came to 1.34 µM with Pseudomonas aeruginosa [1] and 6.62 µM with Pseudomonas aeruginosa [6]. This compound also had an ED50 with Lipopolysaccharide (LPS) [2] of 2.85 µM. The same compound registered a concentration for 50% haemolysis (HC50) at 4 h in data set [3] above 150 µM. The selectivity ratio in [4] and in data set [7] was 16 to 60 each time. Further, the MAC in the data set with Pseudomonas aeruginosa [5] stood at 1 µM. In addition, in the data set on Pseudomonas aeruginosa [9], the Activity turned out to be 50%. The compound further displayed an inhibition with Lipopolysaccharide (LPS) [10] of 40%.
On to H-RPFTRAQIFAIQHISPRTIAMRAINNYRWR-OH, for which the figures for the IC50 in the data set with MRC5 and in the data set on HepG2 were above 150 µM and 172 µM, respectively. In addition, the values for the EC50 in the data set on Pseudomonas aeruginosa [1] and with Pseudomonas aeruginosa [6] were 0.25 µM and 4.37 µM, respectively. In the data set on Lipopolysaccharide (LPS) [2], the ED50 stood at 3.07 µM. This compound also displayed an HC50 at 4 h in [3] above 150 µM. Besides, the selectivity ratio in data set [4] and in [7] was 16 to 60 throughout. The same compound yielded an MAC in the data set on Pseudomonas aeruginosa [5] of 0.125 µM.

Usually IC50 stands for the point on the concentration scale where inhibition reaches its midpoint. As a reminder, the HC50 is the concentration giving 50% haemolysis. Low values mean stronger haemolysis, high ones weaker haemolysis. As a reminder, the inhibition is the percentage by which the read-out fell short of the control.
